In patent US20230263752A1, “VETERINARY COMPOSITIONS FOR THE TREATMENT AND/OR PREVENTION OF PROTOZOAN DISEASES AND METHODS OF PREPARATION THEREOF” (ADIFEED SP. Z O. O., priority 2020, published 2023):
“And” between values parts separate entries of the source, which are not always exact repeats. Equal entries are not always repeated.

Assays:
Gregarina blattarum = test: in vitro protozoicidal test on gregarines isolated from cockroaches, in Ringer's solution; format: cell-based; conditions: for LD100: 100% mortality within 3 minutes
Excerpt: For in vitro tests of antiprotozoal activity of the composition five reference organisms representing taxonomic groups to which pathogenic protozoa belong were selected, i.e: • Amoeba proteus—Chaos diffluens—a protozoan of the order Euamoebida, belonging to fifth supergroup of the Amoebozoa, living in waters. • Paramecium caudatum—a slipper animalcule representing the Ciliata orachs, living in waters. • Gregarina blattarum—gregarine isolated from cockroaches, representing the phylum Apicomplexa, living in the digestive tracts or body cavities of invertebrates. • Euglena gracilis—a protozoan living in water, representing the flagellates—Mastigophora, family Euglenaceae. • Trichomonas hominis—a protozoan living in the human colon, representing the Trichomonadidae.
The gregarines were isolated from the cockroaches and, after being placed on a watch slide, were treated with the products at different concentrations in Ringer's solution. Each sample contained ten individuals.
The compositions, negative controls, and positive controls were dissolved in an aqueous solution of polysorbate 80 (0.05%) before application to a watch slide.
After this time, the reaction product was filtered through filter paper. […] Compositions I and II were then analysed for their antiprotozoal properties. […]
The tested preparations were dissolved in an aqueous solution of polysorbate 80 (0.05%) before being applied to a watch glass. […] Observation under a fluorescence microscope with phase contrast was carried out.

Amoeba proteus = test: in vitro protozoicidal test on watch glass, LD50/LD100; format: cell-based
Trichomonas hominis = test: as above; format: cell-based
Trypanosoma cruzi = conditions: read-out: inhibitory effect on 50% of the population (IC50); cited from earlier work
[1] = system: Trypanosoma cruzi and Leishmania chagasi; conditions: cited from earlier work
[2] = system: Trypanosoma cruzi and different Leishmania species; conditions: cited from earlier work
[3] = 100% mortality within 3 minutes

Cc1ncc([N+](=O)[O-])n1CCO [M, metronidazole]
LD50 (Gregarina blattarum; 50% mortality within 3 minutes): 0.13% and 0.3%
LD100 (Gregarina blattarum): 0.3%
LD50 (Amoeba proteus; 50% mortality within 3 minutes): 0.3%
LD100 (Amoeba proteus; [3]): 0.5%
LD50 (Trichomonas hominis; 50% mortality within 3 minutes): 0.05% and 0.08%
LD100 (Trichomonas hominis; [3]): 0.1% and 0.15%

CC1CS(=O)(=O)CCN1/N=C/c1ccc([N+](=O)[O-])o1 (stereo not shown) [Nifurtimox]
IC50 (Trypanosoma cruzi): 6 µM
IC50 [1]: 0.3 to 0.4 µg/mL

O=C(Cn1ccnc1[N+](=O)[O-])NCc1ccccc1 [benznidazole]
values obtained (in vitro antiprotozoal activity) [2]: 45.02 µg/mL

copper carbonate [Copper carbonate solution]
LD100 (Gregarina blattarum): 0.37%
